The values below come from US20260174878A1, “IRAK4 DEGRADATION AGENT AND USE THEREOF” (LEADINGTAC PHARMACEUTICAL (SHAOXING) CO., LTD., priority 2022, published 2026).

The assay concerns the target T1, IRAK4 protein in normal human PBMCs (Homo sapiens, UniProt Q9NWZ3).
T1 construct: host or cells: normal human PBMCs
T1 sequence (Q9NWZ3 1-460): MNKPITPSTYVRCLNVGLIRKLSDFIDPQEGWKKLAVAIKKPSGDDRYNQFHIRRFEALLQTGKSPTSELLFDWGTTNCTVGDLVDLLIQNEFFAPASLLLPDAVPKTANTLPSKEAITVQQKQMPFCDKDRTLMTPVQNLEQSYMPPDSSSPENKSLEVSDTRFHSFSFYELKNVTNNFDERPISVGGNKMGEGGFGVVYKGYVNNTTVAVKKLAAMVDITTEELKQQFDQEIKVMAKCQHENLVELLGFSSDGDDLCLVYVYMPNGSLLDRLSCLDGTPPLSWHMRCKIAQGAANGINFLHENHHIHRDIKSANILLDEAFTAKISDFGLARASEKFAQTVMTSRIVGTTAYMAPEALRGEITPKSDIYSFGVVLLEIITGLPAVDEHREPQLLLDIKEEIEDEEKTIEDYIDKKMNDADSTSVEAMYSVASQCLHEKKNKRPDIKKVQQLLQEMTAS
Kind of assay: Degradation of IRAK4 protein in normal human PBMCs (AlphaLISA). The assay is classed as cell-based. The note with it: 24 h incubation. The protocol:
The cryopreserved normal human PBMCs (Milestone, PB010C) were thawed and resuspended in RPMI 1640 medium (Gibco, A1049101) supplemented with 10% fetal bovine serum (Gibco, 10099141), 100 U/mL penicillin, and 100 µg/mL streptomycin (Gibco, 15140122). After 0.95 mL of cells were plated in each well of a 24-well cell culture plate, 50 µL of diluted compound solution was added to corresponding wells with cells, such that the final concentration of the compound fell within the range of 0.01-3000 nM. The final concentration of DMSO was 0.25%. After the compound-treated cell plate was incubated in an incubator at 37° C. with 5% CO2 for 24 h, the cells were collected into 1.5 mL centrifuge tubes and centrifuged at 1000 rpm at 4° C. for 5 min. The cell pellets were washed twice with 1×DPBS. The resuspended cells were lysed with 100 μL of lysis buffer, left to stand on ice for 30 min, and then centrifuged at 14000 g at 4° C. for 10 min. The samples of the cell lysate supernatant after centrifugation were cryopreserved at −80° C. before testing. The cell lysis buffer was a Western and IP cell lysis buffer (Beyotime, P0013) supplemented with 1 mM phenylmethylsulfonyl fluoride and a protease inhibitor cocktail (Beyotime, P1008).
The total protein concentrations of the cell lysate samples were determined using a BCA protein quantification kit (Tiangen, PA115-02).
The prepared PBMC lysate samples were assayed for IRAK4 concentrations using a human IRAK4 AlphaLISA assay kit (PerkinElmer, AL3117C) to determine the degradation effects of the compounds on IRAK4. The method is as follows:
5 μL of each of IRAK4 standard solutions with different concentrations and test samples of cell lysate supernatant were added to a white 384-well plate (PerkinElmer, 6007299), and then 10 μL of 5× anti-IRAK4 […] beads was added to each well (final concentration of 10 μg/mL). The plate was incubated at room temperature for 30 min. Then 10 μL of 5× biotin-labeled anti-IRAK4 antibody was added to each well (final concentration of 1 nM), and the plate was incubated at room temperature for another 60 min. Finally, 25 μL of 2× streptavidin-labeled donor beads was added to each well (final concentration of 40 μg/mL), and the plate was incubated at room temperature for another 30 min. After the incubation was completed, AlphaLISA signal values were measured on a microplate reader EnVision (PerkinElmer, 2105) in the AlphaScreen standard mode. A standard curve was plotted from the AlphaLISA signal values of the IRAK4 standard solutions with different concentrations, and the IRAK4 concentration of each cell lysate supernatant was determined according to the corresponding concentrations on the standard curve for the AlphaLISA signal values of the test samples and by performing corresponding correction on the total protein concentration of each sample obtained by BCA quantification. The degradation rates for the compounds at each concentration were calculated by comparing the IRAK4 concentration with that of the control group. Then non-linear curve fittings for logarithmic concentration-inhibition rate were performed using GraphPad Prism 8, and the DC50 and Dmax values of the compound were obtained.

For `O=C1CCN(c2cc(C(=O)N3CCC(OCCCN4CCC(n5cc(NC(=O)c6cnn7ccc(N8C[C@H]9C[C@@H]8CO9)nc67)c(C(F)F)n5)CC4)CC3)ccc2Cl)C(=O)N1` [Example 31, 5-((1R,4R)-2-oxa-5-azabicyclo[2.2.1]heptan-5-yl)-N-(1-(1-(3-((1-(4-chloro-3-(2,4-dioxotetrahydropyrimidin-1(2H)-yl)benzoyl)piperidin-4-yl)oxy)propyl)piperidin-4-yl)-3-(difluoromethyl)-1H-pyrazol-4-yl)pyrazolo[1,5-a]pyrimidine-3-carboxamide], the 50% degradation concentration (DC50) – broadly, the midpoint of the concentration-degradation curve – amounted to 0.84 nM and the Dmax – broadly, the largest share of the target that was removed – was 99.2%.
On the same counts, the results for `O=C1CCN(c2cc(C(=O)N3CCC4(CCC(CN5CCC(n6cc(NC(=O)c7cnn8ccc(N9CCOCC9)nc78)c(C(F)F)n6)CC5)CC4)CC3)ccc2Cl)C(=O)N1` [Example 4, N-(1-(1-((3-(4-chloro-3-(2,4-dioxotetrahydropyrimidin-1(2H)-yl)benzoyl)-3-azaspiro[5.5]undecan-9-yl)methyl)piperidin-4-yl)-3-(difluoromethyl)-1H-pyrazol-4-yl)-5-morpholinopyrazolo[1,5-a]pyrimidine-3-carboxamide] are 0.39 nM and 97.2%.
Regarding `O=C1CCN(c2cc(C(=O)N3CCC4(CCC(CN5CCC(n6cc(NC(=O)c7cnn8ccc(N9CCC[C@H](O)C9)nc78)c(C(F)F)n6)CC5)CC4)CC3)ccc2Cl)C(=O)N1` [Example 26, (S)—N-(1-(1-((3-(4-chloro-3-(2,4-dioxotetrahydropyrimidin-1(2H)-yl)benzoyl)-3-azaspiro[5.5]undecan-9-yl)methyl)piperidin-4-yl)-3-(difluoromethyl)-1H-pyrazol-4-yl)-5-(3-hydroxypiperidin-1-yl)pyrazolo[1,5-a]pyrimidine-3-carboxamide], it took 0.35 nM to reach half-maximal degradation (DC50) and the maximal degradation (Dmax) came to 97.8%.
For `O=C1CCN(c2cc(C(=O)N3CCC4(CCC(CN5CCC(n6cc(NC(=O)c7cnn8ccc(N9CCOCC9)nc78)c(C(F)F)n6)CC5)CC4)CC3)ccc2F)C(=O)N1` [Example 12, N-(3-(difluoromethyl)-1-(1-((3-(3-(2,4-dioxotetrahydropyrimidin-1(2H)-yl)-4-fluorobenzoyl)-3-azaspiro[5.5]undecan-9-yl)methyl)piperidin-4-yl)-1H-pyrazol-4-yl)-5-morpholinopyrazolo[1,5-a]pyrimidine-3-carboxamide] the same measures were 0.37 nM and 98%.
In turn, `Cc1ccc(C(=O)N2CCC3(CCC(CN4CCC(n5cc(NC(=O)c6cnn7ccc(N8CCS(=O)(=O)CC8)nc67)c(C(F)F)n5)CC4)CC3)CC2)cc1N1CCC(=O)NC1=O` [Example 22, N-(3-(difluoromethyl)-1-(1-((3-(3-(2,4-dioxotetrahydropyrimidin-1(2H)-yl)-4-methylbenzoyl)-3-azaspiro[5.5]undecan-9-yl)methyl)piperidin-4-yl)-1H-pyrazol-4-yl)-5-(1,1-dioxothiomorpholinyl)pyrazolo[1,5-a]pyrimidine-3-carboxamide] displayed a half-maximal degradation concentration (DC50) of 0.53 nM and a Dmax of 98.1%.
`O=C1CCN(c2cc(C(=O)N3CCC4(CCN(C[C@H]5CC[C@H](n6cc(NC(=O)c7cnn8ccc(N9C[C@H]%10C[C@@H]9CO%10)nc78)c(C(F)F)n6)CC5)CC4)CC3)ccc2Cl)C(=O)N1` [Example 2, 5-((1R,4R)-2-oxa-5-azabicyclo[2.2.1]heptan-5-yl)-N-(1-((1r,4R)-4-((9-(4-chloro-3-(2,4-dioxotetrahydropyrimidin-1(2H)-yl)benzoyl)-3,9-diazaspiro[5.5]undecan-3-yl)methyl)cyclohexyl)-3-(difluoromethyl)-1H-pyrazol-4-yl)pyrazolo[1,5-a]pyrimidine-3-carboxamide] yielded a DC50 of 1.56 nM and a maximal degradation (Dmax) of 99.1%.
